Among the data in ChEMBL document CHEMBL4251572, “Novel aminopyrimidinyl benzimidazoles as potentially antimicrobial agents: Design, synthesis and biological evaluation” (Eur J Med Chem, 2018) are MIC values, retold here.

≈ marks a conversion by molar mass, not a printed value.

In one test the test system is Saccharomyces cerevisiae. Nature of the test: Antifungal against Saccharomyces cerevisiae after 24 hrs by two fold serial dilution method. It is filed as functional.
The next test deals with Bacillus subtilis. As to the kind of experiment: Antibacterial activity against Bacillus subtilis after 24 hrs by micro broth dilution assay. The class given is functional.
A further test deals with Pichia norvegensis. As to the kind of experiment: Antifungal against Candida mycoderma after 24 hrs by two fold serial dilution method. The class given is functional.
The next test deals with Aspergillus flavus. Nature of the test: Antifungal against Aspergillus flavus after 24 hrs by two fold serial dilution method. It is filed as functional.
The subject of the next test is Shigella dysenteriae. Nature of the test: Antibacterial activity against Shigella dysenteriae after 24 hrs by micro broth dilution assay. It is filed as functional.
For another test, the system named is Candida albicans. As to the kind of experiment: Antifungal against Candida albicans ATCC 76615 after 24 hrs by two fold serial dilution method. The class given is functional. The following applies: ATCC 76615, 24 h.
For test [1], the system named is Escherichia coli. As to the kind of experiment: Antibacterial activity against Escherichia coli DH52 after 24 hrs by micro broth dilution assay. It is filed as functional. As to conditions: DH52, 24 h.
In test [2] the test system is Escherichia coli. Nature of the test: Antibacterial activity against Escherichia coli JM109 after 24 hrs by micro broth dilution assay. It is filed as functional. As to conditions: JM109, 24 h.
A further test deals with Salmonella typhi. Nature of the test: Antibacterial activity against Bacillus typhi after 24 hrs by micro broth dilution assay. It is filed as functional, Salmonella enterica subsp. enterica serovar Typhi. The following applies: Salmonella enterica.
Test [3] relates to Staphylococcus aureus. As to the kind of experiment: Antibacterial activity against methicillin-resistant Staphylococcus aureus N315 after 24 hrs by micro broth dilution assay. The class given is functional. The following applies: N315, 24 h.
The subject of test [4] is Staphylococcus aureus. As to the kind of experiment: Antibacterial activity against Staphylococcus aureus ATCC 25923 after 24 hrs by micro broth dilution assay. It is filed as functional. As to conditions: ATCC 25923, 24 h.
The next test relates to Pseudomonas aeruginosa. Nature of the test: Antibacterial activity against Pseudomonas aeruginosa after 24 hrs by micro broth dilution assay. It is filed as functional.
The test system of the next test is Bacillus. As to the kind of experiment: Antibacterial activity against Bacillus proteus ATCC 13315 after 24 hrs by micro broth dilution assay. The class given is functional. As to conditions: ATCC 13315, 24 h.
A further test has as its system Micrococcus luteus. Nature of the test: Antibacterial activity against Micrococcus luteus ATCC4698 after 24 hrs by micro broth dilution assay. It is filed as functional. The following applies: ATCC4698, 24 h.
A further test has as its system Cyberlindnera jadinii. Nature of the test: Antifungal against Candida utilis after 24 hrs by two fold serial dilution method. It is filed as functional. The following applies: Williopsis jadinii.

For `O=C(/C=C/c1ccc(Cl)cc1Cl)c1nc2ccccc2[nH]1`, the MIC in the test with Saccharomyces cerevisiae is 16 µg/mL (≈ 50.4 µM); in the test on Bacillus subtilis, 64 µg/mL (≈ 202 µM); against Pichia norvegensis it was 512 µg/mL (≈ 1610 µM); against Aspergillus flavus it was 512 µg/mL (≈ 1610 µM); against Shigella dysenteriae, 256 µg/mL (≈ 807 µM); against Candida albicans, 256 µg/mL (≈ 807 µM). Besides, the minimal inhibitory concentration (MIC) against Escherichia coli [1] stood at 512 µg/mL (≈ 1610 µM); in the test on Escherichia coli [2] it was 128 µg/mL (≈ 404 µM); with Salmonella typhi it was 512 µg/mL (≈ 1610 µM); with Staphylococcus aureus [3], 256 µg/mL (≈ 807 µM); in the test on Staphylococcus aureus [4], 128 µg/mL (≈ 404 µM); in the test on Pseudomonas aeruginosa, 512 µg/mL (≈ 1610 µM). Further, the minimum inhibitory concentration (MIC) in the test on Bacillus was determined as 512 µg/mL (≈ 1610 µM); against Micrococcus luteus, 512 µg/mL (≈ 1610 µM); with Cyberlindnera jadinii it was 64 µg/mL (≈ 202 µM).

Regarding `CCCCCCCCn1c(C(=O)/C=C/c2ccc(F)cc2)nc2ccccc21`, the minimum inhibitory concentration (MIC) came out at 512 µg/mL (≈ 1350 µM) with Saccharomyces cerevisiae; 16 µg/mL (≈ 42.3 µM) against Bacillus subtilis; 512 µg/mL (≈ 1350 µM) against Pichia norvegensis; 256 µg/mL (≈ 676 µM) against Aspergillus flavus; 512 µg/mL (≈ 1350 µM) with Shigella dysenteriae; 512 µg/mL (≈ 1350 µM) against Candida albicans. The MIC in the test on Escherichia coli [1] stood at 8 µg/mL (≈ 21.1 µM); against Escherichia coli [2] it was 512 µg/mL (≈ 1350 µM); against Salmonella typhi, 128 µg/mL (≈ 338 µM); against Staphylococcus aureus [3], 512 µg/mL (≈ 1350 µM); against Staphylococcus aureus [4] it was 512 µg/mL (≈ 1350 µM); with Pseudomonas aeruginosa, 512 µg/mL (≈ 1350 µM). Further, the minimal inhibitory concentration (MIC) in the test on Bacillus was 512 µg/mL (≈ 1350 µM); against Micrococcus luteus, 32 µg/mL (≈ 84.5 µM); against Cyberlindnera jadinii, 64 µg/mL (≈ 169 µM).

For `CCCCn1c(C(=O)/C=C/c2ccc(C)cc2)nc2ccccc21`, the MIC is 4 µg/mL (≈ 12.6 µM) in the test on Saccharomyces cerevisiae; 128 µg/mL (≈ 402 µM) against Bacillus subtilis; 128 µg/mL (≈ 402 µM) against Pichia norvegensis; 4 µg/mL (≈ 12.6 µM) in the test on Aspergillus flavus; 128 µg/mL (≈ 402 µM) against Shigella dysenteriae; 16 µg/mL (≈ 50.2 µM) in the test on Candida albicans. Further, the MIC is 512 µg/mL (≈ 1610 µM) in the test with Escherichia coli [1]; 128 µg/mL (≈ 402 µM) with Escherichia coli [2]; 128 µg/mL (≈ 402 µM) with Salmonella typhi; 64 µg/mL (≈ 201 µM) against Staphylococcus aureus [3]; 32 µg/mL (≈ 100 µM) with Staphylococcus aureus [4]; 16 µg/mL (≈ 50.2 µM) in the test on Pseudomonas aeruginosa. Further, the MIC in the test on Bacillus turned out to be 512 µg/mL (≈ 1610 µM); against Micrococcus luteus it was 32 µg/mL (≈ 100 µM); in the test on Cyberlindnera jadinii, 512 µg/mL (≈ 1610 µM).

Consider `CCCCCCCn1c(C(=O)/C=C/c2ccc(Cl)cc2)nc2ccccc21`, for which the MIC in the test with Saccharomyces cerevisiae was determined as 512 µg/mL (≈ 1340 µM); in the test on Bacillus subtilis, 256 µg/mL (≈ 672 µM); against Pichia norvegensis, 512 µg/mL (≈ 1340 µM); against Aspergillus flavus, 64 µg/mL (≈ 168 µM); with Shigella dysenteriae, 512 µg/mL (≈ 1340 µM); in the test with Candida albicans, 512 µg/mL (≈ 1340 µM). In addition, the minimal inhibitory concentration (MIC) against Escherichia coli [1] stood at 32 µg/mL (≈ 84 µM); against Escherichia coli [2], 512 µg/mL (≈ 1340 µM); against Salmonella typhi, 512 µg/mL (≈ 1340 µM); in the test with Staphylococcus aureus [3], 512 µg/mL (≈ 1340 µM); with Staphylococcus aureus [4], 256 µg/mL (≈ 672 µM); against Pseudomonas aeruginosa, 512 µg/mL (≈ 1340 µM). The MIC in the test on Bacillus came out at 512 µg/mL (≈ 1340 µM); against Micrococcus luteus, 8 µg/mL (≈ 21 µM); with Cyberlindnera jadinii, 512 µg/mL (≈ 1340 µM).

As to `CCCCCCn1c(-c2cc(-c3ccc(F)cc3)nc(N)n2)nc2ccccc21`, the MIC against Saccharomyces cerevisiae worked out at 512 µg/mL (≈ 1310 µM); in the test on Bacillus subtilis it was 512 µg/mL (≈ 1310 µM); with Pichia norvegensis it was 4 µg/mL (≈ 10.3 µM); in the test on Aspergillus flavus it was 512 µg/mL (≈ 1310 µM); against Shigella dysenteriae, 512 µg/mL (≈ 1310 µM); in the test on Candida albicans, 256 µg/mL (≈ 657 µM). In addition, the MIC is 512 µg/mL (≈ 1310 µM) in the test on Escherichia coli [1]; 512 µg/mL (≈ 1310 µM) in the test with Escherichia coli [2]; 32 µg/mL (≈ 82.2 µM) against Salmonella typhi; 256 µg/mL (≈ 657 µM) in the test on Staphylococcus aureus [3]; 512 µg/mL (≈ 1310 µM) in the test on Staphylococcus aureus [4]; 128 µg/mL (≈ 329 µM) against Pseudomonas aeruginosa. The values for the MIC with Bacillus, in the test with Micrococcus luteus and against Cyberlindnera jadinii were 128 µg/mL (≈ 329 µM), 16 µg/mL (≈ 41.1 µM) and 8 µg/mL (≈ 20.5 µM), respectively.

For the compound `CCCCCCn1c(-c2cc(-c3ccc(Cl)cc3Cl)nc(N)n2)nc2ccccc21`, the minimum inhibitory concentration (MIC) amounted to 512 µg/mL (≈ 1160 µM) in the test with Saccharomyces cerevisiae; 512 µg/mL (≈ 1160 µM) against Bacillus subtilis; 512 µg/mL (≈ 1160 µM) against Pichia norvegensis; 512 µg/mL (≈ 1160 µM) against Aspergillus flavus; 512 µg/mL (≈ 1160 µM) against Shigella dysenteriae; 256 µg/mL (≈ 581 µM) against Candida albicans. Further, the minimal inhibitory concentration (MIC) against Escherichia coli [1] worked out at 64 µg/mL (≈ 145 µM); against Escherichia coli [2], 512 µg/mL (≈ 1160 µM); in the test with Salmonella typhi, 512 µg/mL (≈ 1160 µM); with Staphylococcus aureus [3], 512 µg/mL (≈ 1160 µM); against Staphylococcus aureus [4], 512 µg/mL (≈ 1160 µM); with Pseudomonas aeruginosa it was 512 µg/mL (≈ 1160 µM). The MIC in the test with Bacillus, with Micrococcus luteus and against Cyberlindnera jadinii was 512 µg/mL (≈ 1160 µM) each time.

Turning to `CCCCCCCn1c(C(=O)/C=C/c2ccc(Cl)cc2Cl)nc2ccccc21`, the MIC came out at 512 µg/mL (≈ 1230 µM) with Saccharomyces cerevisiae; 512 µg/mL (≈ 1230 µM) against Bacillus subtilis; 512 µg/mL (≈ 1230 µM) against Pichia norvegensis; 512 µg/mL (≈ 1230 µM) against Aspergillus flavus; 256 µg/mL (≈ 616 µM) with Shigella dysenteriae; 512 µg/mL (≈ 1230 µM) with Candida albicans. Besides, the MIC amounted to 512 µg/mL (≈ 1230 µM) in the test on Escherichia coli [1]; 512 µg/mL (≈ 1230 µM) against Escherichia coli [2]; 512 µg/mL (≈ 1230 µM) with Salmonella typhi; 512 µg/mL (≈ 1230 µM) against Staphylococcus aureus [3]; 128 µg/mL (≈ 308 µM) against Staphylococcus aureus [4]; 512 µg/mL (≈ 1230 µM) with Pseudomonas aeruginosa. Also, the minimum inhibitory concentration (MIC) in the test with Bacillus, against Micrococcus luteus and with Cyberlindnera jadinii was 512 µg/mL (≈ 1230 µM) throughout.
